Measured values taken from patent publication US20220331326A1, “PHARMACEUTICAL COMPOSITION, PHARMACEUTICAL DOSAGE FORM, PROCESS FOR THEIR PREPARATION, METHODS FOR TREATING AND USES THEREOF” (Boehringer Ingelheim International GmbH, priority 2009, published 2022).

Assays:
[1] = compatibility with / degradation of linagliptin in the composition; assay type: physicochemical; details: combined with a glucopyranosyl-substituted benzene derivative of the formula (I), in particular the compound (I.3)
Description: Preferably the excipients are chosen such that they are compatible with linagliptin, i.e. such that there is no or only marginal degradation of linagliptin in the pharmaceutical composition. The degradation can be tested in standard tests, for example after a 6 months storage at 40° C. and 75% relative humidity. In this context the term “marginal degradation” shall mean a chemical degradation of linagliptin of less than 5%, preferably less than 3%, even more preferably less than 2% by weight of linagliptin. The content and thus the degradation can be determined by well-known analytical methods, for example using HPLC or UV methods.

[2] = test system: Zucker Diabetic Fatty (ZDF) rats; assay: oral glucose tolerance test in ZDF rats; assay type: in vivo, rat; details: male ZDF rats, single oral dose 30 min before 2 g/kg oral glucose; linagliptin 1 mg/kg, compound (I.3) 3 mg/kg, combination at the same doses; versus control
Description: According to a first example an oral glucose tolerance test is performed in overnight fasted 9-weeks old male Zucker Diabetic Fatty (ZDF) rats (ZDF/Crl-Lepr^fa). A pre-dose blood sample is obtained by tail bleed. Blood glucose is measured with a glucometer, and the animals are randomized for blood glucose (n=5/group). Subsequently, the groups receive a single oral administration of either vehicle alone (0.5% aqueous hydroxyethylcellulose containing 3 mM HCl and 0.015% Polysorbat 80) or vehicle containing either the SGLT2 inhibitor or the DPPIV inhibitor or the combination of the SGLT2 inhibitor plus the DPP IV inhibitor plus. The animals receive an oral glucose load (2 g/kg) 30 min after compound administration. Blood glucose is measured in tail blood 30 min, 60 min, 90 min, 120 min, and 180 min after the glucose challenge. Glucose excursion is quantified by calculating the reactive glucose AUC. The data are presented as mean±SEM. The two-sided unpaired Student t-test is used for statistical comparison of the control group and the active groups.
“Cpd. A” is linagliptin at a dose of 1 mg/kg. Cpd. B is the compound (I.3), i.e. 1-chloro-4-(β-D-glucopyranos-1-yl)-2-[4-((S)-tetrahydrofuran-3-yloxy)-benzyl]-benzene, at a dose of 3 mg/kg. Combination A+B is the combination of linagliptin and the compound (I.3) at the same doses. P-values versus control are indicated by symbols above the bars. […]

[3] = metformin on its own, in the diabetic; cited from earlier work

CC#CCn1c(N2CCC[C@@H](N)C2)nc2c1c(=O)n(Cc1nc(C)c3ccccc3n1)c(=O)n2C [Linagliptin, linagliptin]
degradation of linagliptin [1]: does not show or shows only marginal degradation | reduction of glucose excursion (reactive glucose AUC) in oral glucose tolerance test [2]: 56%

OC[C@H]1O[C@@H](c2ccc(Cl)c(Cc3ccc(O[C@H]4CCOC4)cc3)c2)[C@H](O)[C@@H](O)[C@@H]1O [compound (I.3), 1-chloro-4-(β-D-glucopyranos-1-yl)-2-[4-((S)-tetrahydrofuran-3-yloxy)-benzyl]-benzene]
reduction of glucose excursion (reactive glucose AUC) in oral glucose tolerance test [2]: 51%

CN(C)C(=N)N=C(N)N [metformin]
average improvement in the HbA1c value [3]: 1.0-1.5%
